Common to all, as to experiment: DSF Tm panel
Holding throughout (type): binding
What all share (settings): 10 μM compound

One experiment has as its target T1, VRK1A (Homo sapiens, UniProt Q99986).
T1 construct: purchased in-house DSF kinase panel (SGC-style construct names; the trailing letter is the construct ID)
T1 sequence (Q99986 1-396): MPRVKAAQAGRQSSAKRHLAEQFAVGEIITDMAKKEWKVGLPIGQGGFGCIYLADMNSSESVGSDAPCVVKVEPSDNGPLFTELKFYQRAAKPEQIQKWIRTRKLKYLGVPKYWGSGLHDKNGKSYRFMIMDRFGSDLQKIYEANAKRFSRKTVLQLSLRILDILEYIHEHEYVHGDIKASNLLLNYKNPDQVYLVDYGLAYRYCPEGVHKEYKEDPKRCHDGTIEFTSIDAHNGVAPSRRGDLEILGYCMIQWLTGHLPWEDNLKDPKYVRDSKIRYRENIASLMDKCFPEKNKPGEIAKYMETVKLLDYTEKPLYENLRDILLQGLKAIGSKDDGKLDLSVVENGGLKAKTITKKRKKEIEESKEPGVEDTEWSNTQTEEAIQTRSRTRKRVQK

The next experiment addresses T2, DMPK1A (Homo sapiens, UniProt Q09013).
T2 construct: purchased in-house DSF kinase panel (SGC-style construct names; the trailing letter is the construct ID)
T2 sequence (Q09013 1-629): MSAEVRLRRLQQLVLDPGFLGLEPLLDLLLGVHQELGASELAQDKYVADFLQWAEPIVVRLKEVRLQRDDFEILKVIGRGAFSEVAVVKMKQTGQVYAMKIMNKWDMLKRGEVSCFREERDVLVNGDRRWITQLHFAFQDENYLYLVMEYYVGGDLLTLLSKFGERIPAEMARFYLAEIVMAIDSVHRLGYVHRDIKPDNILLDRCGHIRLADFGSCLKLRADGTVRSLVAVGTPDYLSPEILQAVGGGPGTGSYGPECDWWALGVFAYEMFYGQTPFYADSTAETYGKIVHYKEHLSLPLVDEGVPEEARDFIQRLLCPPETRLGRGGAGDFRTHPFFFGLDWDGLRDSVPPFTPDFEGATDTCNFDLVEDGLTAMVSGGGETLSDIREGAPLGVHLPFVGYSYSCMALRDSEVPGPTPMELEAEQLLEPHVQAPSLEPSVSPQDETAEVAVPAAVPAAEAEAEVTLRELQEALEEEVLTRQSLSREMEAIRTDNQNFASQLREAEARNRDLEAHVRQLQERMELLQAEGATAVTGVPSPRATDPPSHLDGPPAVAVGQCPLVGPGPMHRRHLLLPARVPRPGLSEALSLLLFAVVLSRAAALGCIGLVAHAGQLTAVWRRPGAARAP

A further experiment addresses T3, CLK1A (Homo sapiens, UniProt P49759).
T3 construct: purchased in-house DSF kinase panel (SGC-style construct names; the trailing letter is the construct ID)

For a further experiment, the target named is T4, STK10 (Homo sapiens, UniProt O94804).
T4 construct: purchased in-house DSF kinase panel (SGC-style construct names; the trailing letter is the construct ID)

The next experiment concerns the target T5, EPHA7A (Homo sapiens, UniProt Q15375).
T5 construct: purchased in-house DSF kinase panel (SGC-style construct names; the trailing letter is the construct ID)

The target of the next experiment is T6, CAMK2DA (Homo sapiens, UniProt Q13557).
T6 construct: purchased in-house DSF kinase panel (SGC-style construct names; the trailing letter is the construct ID)

The next experiment has as its target T7, EPHA2 (EPHA2A) (Homo sapiens, UniProt P29317).
T7 construct: purchased in-house DSF kinase panel (SGC-style construct names; the trailing letter is the construct ID)
T7 sequence (P29317 596-900): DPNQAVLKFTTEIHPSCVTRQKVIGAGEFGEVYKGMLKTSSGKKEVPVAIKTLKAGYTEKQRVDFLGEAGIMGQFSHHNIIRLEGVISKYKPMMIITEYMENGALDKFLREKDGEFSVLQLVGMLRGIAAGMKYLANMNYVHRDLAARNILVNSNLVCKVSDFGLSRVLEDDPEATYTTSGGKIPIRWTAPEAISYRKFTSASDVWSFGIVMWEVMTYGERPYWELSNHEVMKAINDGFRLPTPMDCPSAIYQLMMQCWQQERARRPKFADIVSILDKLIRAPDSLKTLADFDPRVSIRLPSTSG

The next experiment concerns the target T8, MARK3A (Homo sapiens, UniProt P27448).
T8 construct: purchased in-house DSF kinase panel (SGC-style construct names; the trailing letter is the construct ID)

The next experiment deals with T9, CAMK2BA (Homo sapiens, UniProt Q13554).
T9 construct: purchased in-house DSF kinase panel (SGC-style construct names; the trailing letter is the construct ID)

A further experiment deals with T10, CAMK4A (Homo sapiens, UniProt Q16566).
T10 construct: purchased in-house DSF kinase panel (SGC-style construct names; the trailing letter is the construct ID)
T10 sequence (Q16566 1-473): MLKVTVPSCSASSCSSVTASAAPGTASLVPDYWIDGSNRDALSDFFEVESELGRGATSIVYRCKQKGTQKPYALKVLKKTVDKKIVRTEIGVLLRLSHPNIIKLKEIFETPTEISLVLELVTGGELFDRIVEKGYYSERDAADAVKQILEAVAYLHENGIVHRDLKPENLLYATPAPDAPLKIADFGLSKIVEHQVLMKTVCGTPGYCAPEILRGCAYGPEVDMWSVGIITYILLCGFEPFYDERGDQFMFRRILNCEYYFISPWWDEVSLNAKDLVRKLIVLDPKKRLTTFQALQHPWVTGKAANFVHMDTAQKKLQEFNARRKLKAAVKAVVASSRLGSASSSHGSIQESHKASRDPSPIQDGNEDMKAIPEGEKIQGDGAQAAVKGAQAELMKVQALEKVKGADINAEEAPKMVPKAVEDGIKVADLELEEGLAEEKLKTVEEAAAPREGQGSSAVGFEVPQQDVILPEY
The method, then:
(§1) The synthesized urea-based derivatives were evaluated in a panel of kinases by differential scanning fluorescence (DSF) to investigate their selectivity profile. A positive ΔT m in the DSF assay indicates stabilization of the protein upon ligand binding in comparison to its apo state, with higher thermal shifts generally correlating with stronger binding. For this purpose, we used our internal kinase selectivity panel (∼90 kinases) along with staurosporine as a positive control. […] This was also reflected in the overall low selectivity score (S) throughout the series, which is determined by the ratio between the number of kinases that are stabilized above 5 °C and the total number of kinases tested (Figure ). Motivated by these findings, we further validated the entire series by orthogonal binding and activity assays to determine the in vitro and cellular potency and selectivity of the developed series in comparison to the selected reference compounds. […]
(§2) was performed as previously described.[1,2] Briefly, recombinant protein kinase domains at a concentration of 2 μM were mixed with 10 μM compound in a buffer containing 20 mM HEPES, […]
(§3) probe (1 µl per mL). Subsequently, temperature-dependent protein unfolding profiles were […]
(§4) emission filters were set to 465 nm and 590 nm, respectively. The temperature was raised with a step rate of 3 °C per minute. […]
(§5) inflection point of the transition curve. […]
(§6) previously.[3] In brief, STK10, STK3, STK4 and SLK were obtained as plasmids cloned in […]
(§7) Plasmids were transfected into
(§8) KD concentration taken from TracerDB (tracerdb.org)[4] were pipetted into white 384-well

Another experiment concerns TAF1A. As to the method:
as §1, §2, §3, §4, §5, §6, §7, §8

Each structure is given as a SMILES string.

T9 sequence (Q13554 11-303): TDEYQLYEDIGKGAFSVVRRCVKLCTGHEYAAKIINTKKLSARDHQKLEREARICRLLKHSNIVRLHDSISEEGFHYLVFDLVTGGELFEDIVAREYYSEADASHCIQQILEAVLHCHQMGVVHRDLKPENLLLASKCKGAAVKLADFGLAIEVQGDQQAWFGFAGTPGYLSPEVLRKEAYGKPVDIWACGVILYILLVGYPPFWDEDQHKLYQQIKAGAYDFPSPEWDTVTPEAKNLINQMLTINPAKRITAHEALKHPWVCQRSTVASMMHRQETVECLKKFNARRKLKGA
T6 sequence (Q13557 11-309): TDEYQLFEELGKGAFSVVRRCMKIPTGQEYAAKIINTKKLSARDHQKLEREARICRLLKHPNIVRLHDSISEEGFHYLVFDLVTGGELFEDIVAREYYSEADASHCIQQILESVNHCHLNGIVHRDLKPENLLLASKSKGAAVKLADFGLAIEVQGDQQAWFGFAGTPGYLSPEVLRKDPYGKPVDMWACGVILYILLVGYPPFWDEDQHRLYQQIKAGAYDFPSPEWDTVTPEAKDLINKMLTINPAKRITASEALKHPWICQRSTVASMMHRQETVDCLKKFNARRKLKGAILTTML
T3 sequence (P49759 148-484): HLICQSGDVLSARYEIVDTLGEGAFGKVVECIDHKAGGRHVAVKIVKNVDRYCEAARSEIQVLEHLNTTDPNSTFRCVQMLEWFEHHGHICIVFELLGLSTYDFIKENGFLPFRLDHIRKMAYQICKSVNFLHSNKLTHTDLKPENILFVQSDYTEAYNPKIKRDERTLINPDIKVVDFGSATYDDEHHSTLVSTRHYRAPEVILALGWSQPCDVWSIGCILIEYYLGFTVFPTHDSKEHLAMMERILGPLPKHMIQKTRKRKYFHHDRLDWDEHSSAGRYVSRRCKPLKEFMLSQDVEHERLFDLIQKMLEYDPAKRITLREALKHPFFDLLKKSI
T4 sequence (O94804 18-317 limits assumed): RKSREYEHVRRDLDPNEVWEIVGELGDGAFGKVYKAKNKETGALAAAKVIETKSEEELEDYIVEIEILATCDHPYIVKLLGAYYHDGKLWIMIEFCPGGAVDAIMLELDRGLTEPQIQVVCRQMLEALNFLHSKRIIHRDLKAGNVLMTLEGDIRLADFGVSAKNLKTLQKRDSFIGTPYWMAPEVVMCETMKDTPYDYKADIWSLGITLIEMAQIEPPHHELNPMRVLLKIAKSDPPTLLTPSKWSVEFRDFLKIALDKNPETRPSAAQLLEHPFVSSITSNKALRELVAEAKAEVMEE
T8 sequence (P27448 56-307): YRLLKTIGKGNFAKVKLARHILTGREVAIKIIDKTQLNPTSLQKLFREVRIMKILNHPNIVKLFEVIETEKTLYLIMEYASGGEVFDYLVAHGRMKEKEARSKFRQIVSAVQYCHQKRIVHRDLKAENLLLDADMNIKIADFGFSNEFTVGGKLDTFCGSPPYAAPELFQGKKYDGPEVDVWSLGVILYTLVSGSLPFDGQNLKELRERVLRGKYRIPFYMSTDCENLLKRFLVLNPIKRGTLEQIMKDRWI
T5 sequence (Q15375 590-899): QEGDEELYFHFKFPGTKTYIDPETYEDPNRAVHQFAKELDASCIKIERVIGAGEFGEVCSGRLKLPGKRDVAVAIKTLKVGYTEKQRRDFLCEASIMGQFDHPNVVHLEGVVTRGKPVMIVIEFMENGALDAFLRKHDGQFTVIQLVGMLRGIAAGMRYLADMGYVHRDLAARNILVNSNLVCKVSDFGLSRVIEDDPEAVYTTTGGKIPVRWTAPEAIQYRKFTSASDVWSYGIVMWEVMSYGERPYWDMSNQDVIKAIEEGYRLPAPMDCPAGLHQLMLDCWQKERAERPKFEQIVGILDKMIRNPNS

For orientation: ΔTm means the change in melting temperature against a reference sample. `O=C(NCc1ccc(C(F)(F)F)cc1)Nc1ccc2cc1OCCOCCNc1ccn3ncc-2c3n1` [compound 28]: the ΔTm at 10 µM at VRK1A came out at 0.6 °C; at DMPK1A, 0.3 °C; at CLK1A, 2.3 °C; on STK10, 9.9 °C; at EPHA7A it was 3.5 °C; on CAMK2DA it was 2.7 °C. Further, the ΔTm at 10 µM at EPHA2 (EPHA2A) turned out to be 0.1 °C; at MARK3A, 1.4 °C; on CAMK2BA, 0.3 °C; on CAMK4A, 1 °C. Further, the “ΔTm TAF1A” value in the experiment on TAF1A was 0,3 °C.

Regarding `COc1ccccc1CNC(=O)Nc1ccc2cc1OCCOCCNc1ccn3ncc-2c3n1` [compound 29], the ΔTm at 10 µM was 0 °C at VRK1A; 0.3 °C at DMPK1A; 2.8 °C at CLK1A; 7.5 °C on STK10; 1.1 °C at EPHA7A; 2.1 °C at CAMK2DA. The shift in melting temperature (ΔTm) at 10 µM is 0.4 °C at EPHA2 (EPHA2A), -0.1 °C at MARK3A, -0.2 °C on CAMK2BA and 0.6 °C at CAMK4A. Besides, the “ΔTm TAF1A” value in the experiment with TAF1A was 0,0 °C.

With `COc1cccc(CNC(=O)Nc2ccc3cc2OCCOCCNc2ccn4ncc-3c4n2)c1` [compound 30], the ΔTm at 10 µM on VRK1A was 0.3 °C; at DMPK1A, 0.4 °C; on CLK1A, 2.5 °C; on STK10, 7.1 °C; at EPHA7A it was 1.5 °C; on CAMK2DA it was 2.3 °C. Also, the ΔTm at 10 µM was 0.4 °C at EPHA2 (EPHA2A), -0.3 °C at MARK3A, -0.2 °C on CAMK2BA and 0.8 °C on CAMK4A. Also, in the experiment with TAF1A, the “ΔTm TAF1A” value is -0,1 °C.

Regarding `COc1ccc(CNC(=O)Nc2ccc3cc2OCCOCCNc2ccn4ncc-3c4n2)cc1` [compound 31], the ΔTm at 10 µM at VRK1A came out at 0.2 °C; on DMPK1A, 1 °C; on CLK1A, 2.8 °C; at STK10, 6 °C; at EPHA7A, 1.8 °C; at CAMK2DA, 2.8 °C. Also, the ΔTm at 10 µM at EPHA2 (EPHA2A) is 0.4 °C; at MARK3A it was 0.2 °C; at CAMK2BA, -0.1 °C; on CAMK4A it was 1.1 °C. The “ΔTm STK10” value on STK10 (10 µM) is 6,7 °C. The “ΔTm TAF1A” value with TAF1A is 0,0 °C.

`COc1ccc(CNC(=O)Nc2ccc3cc2OCCOCCNc2ccn4ncc-3c4n2)cc1F` [compound 32]: the ΔTm at 10 µM at VRK1A is 0.2 °C; on DMPK1A, 0.6 °C; at CLK1A, 2.7 °C; at STK10 it was 7.6 °C; at EPHA7A, 2.9 °C; on CAMK2DA, 2.7 °C. In addition, the ΔTm at 10 µM on EPHA2 (EPHA2A) came to 0.3 °C; on MARK3A, 0.5 °C; on CAMK2BA it was 0 °C; at CAMK4A, 0.9 °C. Moreover, in the experiment on TAF1A, the “ΔTm TAF1A” value is 0,2 °C.

As to `COc1cc(CNC(=O)Nc2ccc3cc2OCCOCCNc2ccn4ncc-3c4n2)ccc1F` [compound 33], the ΔTm at 10 µM amounted to 0.3 °C at VRK1A; 0.7 °C at DMPK1A; 4.7 °C at CLK1A; 6.7 °C on STK10; 1.9 °C at EPHA7A; 2.4 °C at CAMK2DA. Moreover, the ΔTm at 10 µM at EPHA2 (EPHA2A) is 0.5 °C; at MARK3A it was 0.3 °C; at CAMK2BA, 0.1 °C; at CAMK4A it was 1 °C. Moreover, the “ΔTm TAF1A” value in the experiment on TAF1A is 0,1 °C.

As for `C[C@H](NC(=O)Nc1ccc2cc1OCCOCCNc1ccn3ncc-2c3n1)c1ccccc1` [compound 34], the ΔTm at 10 µM on VRK1A came to 0 °C; at DMPK1A, 0 °C; on CLK1A, 3.1 °C; at STK10, 5.6 °C; on EPHA7A, 1.9 °C; on CAMK2DA it was 2.2 °C. For the same molecule, the ΔTm at 10 µM was 0.3 °C at EPHA2 (EPHA2A), 0 °C on MARK3A, -0.3 °C on CAMK2BA and 0.6 °C at CAMK4A. In addition, in the experiment on TAF1A, the “ΔTm TAF1A” value is -0,3 °C.

As to `CN1CCN(C(=O)Nc2ccc3cc2OCCOCCNc2ccn4ncc-3c4n2)CC1` [compound 35], the ΔTm at 10 µM is -0.1 °C at VRK1A; 0.2 °C at DMPK1A; 2.9 °C at CLK1A; 3.7 °C on STK10; -1.4 °C at EPHA7A; 0.5 °C at CAMK2DA. For the same molecule, the shift in melting temperature (ΔTm) at 10 µM worked out at 0.6 °C at EPHA2 (EPHA2A), 0.5 °C at MARK3A, 0.6 °C at CAMK2BA and 0 °C on CAMK4A. In addition, the “ΔTm TAF1A” value with TAF1A was 0,1 °C.

The record behind these values is article PMC12621043, “Un-LOK-ing a New Approach for Conformational Selective Targeting of STK10 (LOK)” (ACS Medicinal Chemistry Letters, 2025).
